Measurements taken from patent publication US9334285B2, “Aldosterone synthase inhibitors” (Boehringer Ingelheim International GmbH, priority 2014, dated 2016).
Where two headings read alike, the source gives them in different places.

Experiments:
[1] = molecular target: T1, aldosterone synthase (CYP11B2) (Macaca fascicularis, UniProt A0A2K5UPL9); experiment: Inhibition of aldosterone synthase, cynomolgus adrenal mitochondria, aldosterone quantified by mass spectrometry; assay type: biochemical, cynomolgus monkey; settings: 2 μM corticosterone, 90 minutes at 37° C.
T1 construct: employ cynomolgus adrenal gland mitochondria as the source of aldosterone synthase (CYP11B2); from tissue; host or cells: cynomolgus monkey adrenal gland mitochondria
T1 sequence (A0A2K5UPL9 1-503): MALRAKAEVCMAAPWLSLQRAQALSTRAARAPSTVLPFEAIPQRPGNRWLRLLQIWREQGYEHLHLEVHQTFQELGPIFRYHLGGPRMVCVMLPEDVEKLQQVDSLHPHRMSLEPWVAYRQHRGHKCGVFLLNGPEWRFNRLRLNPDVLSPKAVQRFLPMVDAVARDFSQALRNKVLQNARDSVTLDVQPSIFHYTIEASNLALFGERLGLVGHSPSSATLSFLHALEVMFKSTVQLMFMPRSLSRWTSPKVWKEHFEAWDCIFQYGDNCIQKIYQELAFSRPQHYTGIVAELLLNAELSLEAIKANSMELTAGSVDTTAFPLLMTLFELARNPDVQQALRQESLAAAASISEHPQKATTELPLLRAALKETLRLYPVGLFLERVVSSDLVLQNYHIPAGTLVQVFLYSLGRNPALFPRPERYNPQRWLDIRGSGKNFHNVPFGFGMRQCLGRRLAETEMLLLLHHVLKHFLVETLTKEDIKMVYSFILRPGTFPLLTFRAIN
Procedure: The aldosterone synthase and cortisol synthase inhibition assays employ cynomolgus adrenal gland mitochondria as the source of aldosterone synthase (CYP11B2) and cortisol synthase (CYP11B1). […] One unit of CYP11B2 and CYP11B1 activity in these preparations is defined as the amount of enzyme that generates 1 pmol of product in one hour under the conditions described.
The compounds of the invention may be evaluated for aldosterone synthase inhibition by the following assay:
Assays are performed in 96-well format in a final volume of 60 microL/well, containing 100 mM potassium phosphate, pH 7.4, 1% (v/v) DMSO, and additionally, 2 μM of corticosterone and 50 units of CYP11B2 activity. Reactions are started by the addition of NADPH to 1 mM and allowed to proceed for 90 minutes at 37° C. Reactions are terminated by the addition of 60 μL of MeCN containing an internal standard for mass spectrometry. One hundred microliters are then transferred to a glass filter plate and centrifuged at 570×g for 5 minutes and the filtrate is collected. Reaction product aldosterone is quantified by mass spectrometry. To determine the assay blank value (0% activity), NADPH is omitted from some reactions.
(§1) Dose dependent inhibition is quantified by the inclusion of compound at various concentrations. Maximum activity (100%) is defined by reactions containing NADPH, but without compound.

[2] = molecular target: cortisol synthase (CYP11B1) (Macaca fascicularis, UniProt A0A2K5ULY1); experiment: Inhibition of cortisol synthesis, cynomolgus adrenal mitochondria, 11-deoxycortisol as substrate; assay type: biochemical, cynomolgus monkey; settings: 150 units of CYP11B1, 11-deoxycortisol as substrate
Procedure: The aldosterone synthase and cortisol synthase inhibition assays employ cynomolgus adrenal gland mitochondria as the source of aldosterone synthase (CYP11B2) and cortisol synthase (CYP11B1). Mitochondria are prepared from frozen cynomolgus monkey adrenal glands according to Method A described in by J. D. McGarry et al. (Biochem. J., 1983, 214, 21-28), with a final resuspension in the AT buffer described in R. Yamaguchi et al. (Cell Death and Differentiation, 2007, 14, 616-624), frozen as aliquots in liquid nitrogen and stored at −80° C. until use. One unit of CYP11B2 and CYP11B1 activity in these preparations is defined as the amount of enzyme that generates 1 pmol of product in one hour under the conditions described.
Assays are performed as for aldosterone synthase except for the use of 150 units of CYP11B1, 11-deoxycortisol as substrate and cortisol measured as product.

rhCYP17A1 = molecular target: T2, rhCYP17A1 (Homo sapiens, UniProt P05093); experiment: Inhibition of CYP17A1, progesterone to 17-α-hydroxyprogesterone, mass spectrometry; assay type: biochemical
T2 construct: purchased Cypex
T2 sequence (P05093 1-508): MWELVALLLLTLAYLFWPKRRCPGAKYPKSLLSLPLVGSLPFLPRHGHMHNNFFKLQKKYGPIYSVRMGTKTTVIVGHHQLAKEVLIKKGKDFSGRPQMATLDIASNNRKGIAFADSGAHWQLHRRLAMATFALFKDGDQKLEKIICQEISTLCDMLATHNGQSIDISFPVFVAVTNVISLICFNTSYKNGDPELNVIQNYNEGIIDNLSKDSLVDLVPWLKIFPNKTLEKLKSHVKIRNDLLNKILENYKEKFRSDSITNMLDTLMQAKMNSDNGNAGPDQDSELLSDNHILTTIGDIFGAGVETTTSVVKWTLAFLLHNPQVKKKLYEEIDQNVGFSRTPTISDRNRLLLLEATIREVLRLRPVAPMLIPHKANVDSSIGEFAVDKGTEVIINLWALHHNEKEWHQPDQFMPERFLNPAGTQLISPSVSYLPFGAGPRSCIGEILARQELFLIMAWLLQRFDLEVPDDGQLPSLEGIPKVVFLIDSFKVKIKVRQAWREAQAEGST
Procedure: Compounds of the invention may also be evaluated for inhibition of CYP17A1 via the following assay:
Reactions are started by the addition of NADPH to 1 mM and allowed to proceed for 15 minutes at 37° C. Reactions are terminated by the addition of 40 μL of MeCN containing an internal standard for mass spectrometry. The plates are centrifuged at 3000 rpm for 5 min and the reaction product 17-α-hydroxyprogesterone is quantified by mass spectrometry. To determine the assay blank value (0% activity), NADPH is omitted from some reactions.
as §1

CYP19A1 = molecular target: T3, CYP19A1 (Homo sapiens, UniProt P11511); experiment: Inhibition of CYP19A1 (Kragie et al.); assay type: biochemical
T3 sequence (P11511 1-503): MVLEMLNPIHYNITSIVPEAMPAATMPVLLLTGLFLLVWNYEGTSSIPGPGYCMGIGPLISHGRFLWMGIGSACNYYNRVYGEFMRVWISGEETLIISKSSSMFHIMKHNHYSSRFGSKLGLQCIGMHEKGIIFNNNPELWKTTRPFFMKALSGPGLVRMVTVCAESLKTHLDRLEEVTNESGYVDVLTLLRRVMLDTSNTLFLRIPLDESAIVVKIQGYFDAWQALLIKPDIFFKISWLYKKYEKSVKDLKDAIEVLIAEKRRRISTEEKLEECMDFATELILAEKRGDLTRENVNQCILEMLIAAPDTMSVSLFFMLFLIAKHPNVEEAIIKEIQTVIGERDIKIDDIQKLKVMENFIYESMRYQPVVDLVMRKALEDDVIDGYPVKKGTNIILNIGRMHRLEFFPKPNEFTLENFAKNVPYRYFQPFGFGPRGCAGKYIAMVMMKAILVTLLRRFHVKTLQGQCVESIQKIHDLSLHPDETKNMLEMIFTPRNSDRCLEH

[3] = cynomolgus adrenal mitochondria, read-out: Cortisol Inhibition IC50
[4] = rhCYP17A1, 150 nM progesterone, 15 minutes at 37° C., read-out: CYP17A1 IC50
[5] = Cortisol Inhibition IC50, cynomolgus adrenal mitochondria

Row | Structure (SMILES) | IC50 [1] [µM] | IC50 [2, 3] [µM] | IC50 (rhCYP17A1; [4]) [µM] | IC50 (CYP19A1; read-out: CYP19A1 IC50) [µM] | IC50 [2, 5] [µM] | IC50 (rhCYP17A1) [µM] | IC50 (CYP19A1) [µM] | IC50 (rhCYP17A1; read-out: CYP17A1 IC50, rhCYP17A1, 150 nM progesterone, 15 minutes at 37° C.) [µM]
1 | CC1Cc2ncn(-c3ccc(C#N)cc3)c2C(=O)O1 (single isomer, unassigned) [Compound 16A, 4[6-methyl-4-oxo-3H,4H,6H,7H-pyrano[3,4-d]imidazol-3-yl]benzonitrile] | 0.1 | 26 | > 20 | > 20 | – | – | – | –
2 | CC1Cc2ncn(-c3ccc(C#N)cc3)c2C(=O)O1 (single isomer, unassigned) [Compound 16B, 4[6-methyl-4-oxo-3H,4H,6H,7H-pyrano[3,4-d]imidazol-3-yl]benzonitrile] | 0.16 | 35 | > 20 | > 20 | – | – | – | –
3 | C[C@]1(CO)Cc2ncn(-c3ccc(C#N)c(Cl)c3)c2C(=O)O1 (single isomer, unassigned) [Compound 29A] | 0.016 | – | > 20 | > 20 | 4.7 | – | – | –
4 | C[C@@]1(CO)Cc2ncn(-c3ccc(C#N)c(Cl)c3)c2C(=O)O1 (single isomer, unassigned) [Compound 29B] | 0.048 | – | > 20 | > 20 | 23 | – | – | –
5 | CC1(CO)Cc2ncn(-c3ccc(Cl)c(Cl)c3)c2C(=O)O1 (single isomer, unassigned) [Compound 30A, 3-(3,4-dichlorophenyl)-6-(hydroxymethyl)-6-methyl-3H,4H,6H,7H-pyrano[3,4-d]imidazol-4-one] | 0.028 | 9 | > 20 | > 20 | – | – | – | –
6 | CC1(CO)Cc2ncn(-c3ccc(Cl)c(Cl)c3)c2C(=O)O1 (single isomer, unassigned) [Compound 30B, 3-(3,4-dichlorophenyl)-6-(hydroxymethyl)-6-methyl-3H,4H,6H,7H-pyrano[3,4-d]imidazol-4-one] | 0.031 | 5.2 | > 20 | > 20 | – | – | – | –
7 | Cc1cc(C#N)ccc1-n1cnc2c1C(=O)OC(C)(CO)C2 (single isomer, unassigned) [Compound 31A, 4-[6-(hydroxymethyl)-6-methyl-4-oxo-3H,4H,6H,7H-pyrano[3,4-d]imidazol-3-yl]-3-methylbenzonitrile] | 0.023 | 3.6 | > 20 | > 20 | – | – | – | –
8 | Cc1cc(C#N)ccc1-n1cnc2c1C(=O)OC(C)(CO)C2 (single isomer, unassigned) [Compound 31B, 4-[6-(hydroxymethyl)-6-methyl-4-oxo-3H,4H,6H,7H-pyrano[3,4-d]imidazol-3-yl]-3-methylbenzonitrile] | 0.21 | 24 | > 20 | > 20 | – | – | – | –
9 | N#Cc1ccc(-n2cnc3c2C(=O)OC(CO)C3)cc1Cl (single isomer, unassigned) [Compound 33A, 2-chloro-4-[6-(hydroxymethyl)-4-oxo-3H,4H,6H,7H-pyrano[3,4-d]imidazol-3-yl]benzonitrile] | 0.089 | – | – | – | 45 | > 20 | > 20 | –
10 | N#Cc1ccc(-n2cnc3c2C(=O)OC(CO)C3)cc1Cl (single isomer, unassigned) [Compound 33B, 2-chloro-4-[6-(hydroxymethyl)-4-oxo-3H,4H,6H,7H-pyrano[3,4-d]imidazol-3-yl]benzonitrile] | 0.027 | – | – | > 20 | 14 | – | – | > 20
11 | CC1(CO)Cc2ncn(-c3cccc(F)c3Cl)c2C(=O)O1 (single isomer, unassigned) [Compound 34B, 3-(2-chloro-3-fluorophenyl)-6-(hydroxymethyl)-6-methyl-3H,4H,6H,7H-pyrano[3,4-d]imidazol-4-one] | 0.12 | 19 | > 20 | > 20 | – | – | – | –
12 | CC1(CO)Cc2ncn(-c3cccc(Cl)c3F)c2C(=O)O1 (single isomer, unassigned) [Compound 35A, 3-(3-chloro-2-fluorophenyl)-6-(hydroxymethyl)-6-methyl-3H,4H,6H,7H-pyrano[3,4-d]imidazol-4-one] | 0.07 | 24 | 15 | > 20 | – | – | – | –
13 | Cc1cc(-n2cnc3c2C(=O)OC(C)(CO)C3)ccc1C#N (single isomer, unassigned) [Compound 39A, 4-[6-(hydroxymethyl)-6-methyl-4-oxo-3H,4H,6H,7H-pyrano[3,4-d]imidazol-3-yl]-2-methylbenzonitrile] | 0.011 | – | > 20 | > 20 | 1.4 | – | – | –
14 | Cc1cc(-n2cnc3c2C(=O)OC(C)(CO)C3)ccc1C#N (single isomer, unassigned) [Compound 39B, 4-[6-(hydroxymethyl)-6-methyl-4-oxo-3H,4H,6H,7H-pyrano[3,4-d]imidazol-3-yl]-2-methylbenzonitrile] | 0.013 | – | > 20 | > 20 | 8.6 | – | – | –
15 | CC1(CO)Cc2ncn(-c3ccc4c(c3)CCO4)c2C(=O)O1 (single isomer, unassigned) [Compound 42B, 3-(2,3-Dihydro-benzofuran-5-yl)-6-hydroxymethyl-6-methyl-6,7-dihydro-3H-pyrano[3,4-d]imidazol-4-one] | 0.076 | > 30 | > 20 | > 20 | – | – | – | –
16 | CN(C)C(=O)C1(C)Cc2ncn(-c3ccc(C#N)c(Cl)c3)c2C(=O)O1 (centres unmarked) [Compound 46, 3-(3-chloro-4-cyano-phenyl)-6-methyl-4-oxo-3,4,6,7-tetrahydro-pyrano[3,4-d]imidazole-6-carboxylic acid dimethylamide] | 0.089 | – | – | – | 13 | – | – | –
